Experimental findings from US11224565B2, “N-acyldipeptide derivatives and their uses” (NeoStrata Company, Inc., priority 2011, dated 2022) are described below.

Peptide text beside a SMILES is read from it.

In assay [1] the test system is osteoarthritis of both knees. In words: Intra-articular injections in knee osteoarthritis. It is filed as in vivo, human. The protocol: Bioactive dipeptide derivative of the present invention as potential treatment of knee osteoarthritis by intra-articular injections.
A subject had severe osteoarthritis of both knees for four and half years. Prior therapy had included intra-articular injections of corticosteroids and hyaluronic acid as well as celecoxib (Celebrex) orally (200 mg) twice daily. Such therapy had provided only mild transitory relief of knee pain and edema, and edema of lower legs.
Intra-articular injections of 0.2% (w/v) N—Ac-L-Val-L-Ala-NH2 in water, 1 ml (2 mg) as prepared in Example 22 were administered to each knee. The pains in both knees disappeared 10-15 minutes after the injections, and the relief of pains lasted for 24 hours. Edema and inflammation of the knees and lower legs had diminished for approximately the same 24 hour period. Repeat injections of the same composition were administered once a week for five weeks to provide continued relief of pain, edema and inflammation.
In another trial, intra-articular injections of 0.2% (w/v) N—Ac-L-Val-L-Ala-NH2 with 1% (w/v) methyl cellulose in water, 0.4 ml (0.8 mg) as prepared in Example 22 were also administered to each knee at different times. The pains in both knees disappeared 10-15 minutes after the injections, and the relief of pains lasted for 24 hours. Edema and inflammation of the knees and lower legs had diminished for approximately the same 24 hour period.
In yet another embodiment, the volunteer subject injected intra-articularly into a knee joint a test composition containing a bioactive dipeptide derivative of the present invention to improve and reduce arthritic inflammation and pain of the joint.

Assay [2] has as its system skin cut with an open wound. In words: Topical treatment of skin wound. Format: in vivo, human. Particulars: 0.5% (w/w) cream twice daily on 2 cm open wound. The source says:
The subject topically applied twice daily 0.5% (w/w) N—Ac-L-Val-L-Ala-NH2 cream as formulated in Example 2 on the wound. […] At the end of 5 days, the wound had healed nearly completely, and treated skin appeared normal without any signs of scar formation. The wound had 95-100% improvement as judged by clinical evaluation.

Assay [3] deals with interleukin-6 (IL-6) in THP-1 leukemia cells. In words: In vitro screen for anti-inflammatory effects: angiocidin-induced IL-6 in THP-1 cells (ELISA). It is filed as cell-based, human. Particulars: 100 μg/ml for 24 hours, then angiocidin 10 μg/ml for 24 hours. The method, then:
A typical in vitro screen for anti-inflammatory effects was carried out as follows.
THP-1 leukemia cells (monocytic leukemic human cell line) were cultured and either untreated or treated with a bioactive dipeptide derivative (100 μg/ml) of the present invention for 24 hours. The untreated or treated leukemia cells were then treated with angiocidin (10 μg/ml) for 24 hours to induce interleukin-6 (IL-6) which was an indicator of the inflammation. The induced IL-6 was measured quantitatively by ELISA (enzyme-linked immunosorbent assay). […] Therefore, the bioactive dipeptide derivatives of the present invention, such as N—Ac-L-Val-L-Ala-NH2, have the potential use as nonsteroidal anti-inflammatory substances.
For orientation: ELISA stands for enzyme-linked immunosorbent assay.

The next assay deals with muscle strength. The assay is described as follows: Pushup performance after topical application to upper chest. It is filed as in vivo, human. Particulars: 0.5% (w/v) in WEP442 pH 6.9 on upper chest about 30 minutes before exercise; routinely about 100. The method, then:
A subject, performed pushups routinely with a maximal number of about 100 in one hour. The subject topically applied 0.5% (w/v) N—Ac-L-Tyr-L-Tyr-NH2 in WEP442, pH 6.9 solution as prepared in Example 5 to ease the tight muscles on the upper chest about 30 minutes before the exercise. The subject was surprised to find that after the topical application they could now perform pushups with a maximal number of about 200 in one hour without feeling tired. The subject repeated the performance next day with the same enhanced result. To make sure that the enhanced effect on the muscles was not due to the vehicle solution, in the following day the subject topically applied WEP442 solution to the same upper chest about 30 minutes before the exercise. This time the subject could not perform the same number of pushups as before.

The test system of another assay is varicose veins. In words: Topical treatment of varicose veins. Format: in vivo, human. The note with it: 0.5% (w/v) in WEP442 topically twice daily, right lower leg, end of four weeks. An excerpt:
A subject had multiple varicose veins in their right lower leg for many years resistant to any kind of topical treatments including high potency alpha-hydroxyacids. The lesions of varicose veins covered an area of skin measuring 5 cm×10 cm and appeared more prominent with advancing age. The subject topically applied twice daily 0.5% (w/v) N—Ac-L-Tyr-L-Tyr-NH2 in WEP442 solution as prepared in Example 5. […] It is believed that continued topical application will eradicate the varicose veins.

In assay [4] the test system is near-sightedness (myopia). The assay is described as follows: Topical application around the eyes, eye vision (myopia). Particulars: person. Format: in vivo, human. The source says: Typical examples of improving eye vision are described as follows.
Each time their vision in both eyes got worse, and they required changes in contact lenses in past years. This time, 6 weeks before their checkup, the subject topically applied twice daily 0.5% (w/v) N—Ac-L-Tyr-L-Tyr-NH2 in WEP442, pH 6.7 (Example 5) on the skin around and outside of eye areas and periorbital regions for 6 weeks.
Each time their vision in both eyes worsened, and they required changes in the prescription for their contact lenses in the past years. This time, one month before their checkup, the subject topically applied once daily 0.5% (w/v) N—Ac-L-Tyr-L-Tyr-NH2 in WEP442, pH 6.7 (Example 5) on the skin around and outside of eye areas and periorbital regions for 4 weeks.

In a further assay the test system is sweating of underarm. The assay is described as follows: Topical application to underarm, perspiration. It is filed as in vivo, human. The note with it: 0.5% (w/v) in WEP442 pH 6.7 after shower. An excerpt: A subject, routinely took a shower every morning, then topically applied a conventional antiperspirant product on the underarm skin to prevent perspiration. To test the efficacy of the N-acyldipeptide derivative of the present invention, the subject after the shower, topically applied 0.5% (w/v) N—Ac-L-Tyr-L-Tyr-NH2 in WEP442, pH 6.7 (Example 5) on the left underarm and a control vehicle WEP442 on the right underarm. After two hours, there was profuse sweating in the right underarm as evidenced by the wet shirt in the armpit area. In contrast, there was no sweating in the left underarm as shown by the dry shirt in the armpit area. The left underarm was dry for the next 6-8 hours.

Setting [5] is: 0.2% (w/v) in water, 1 ml (2 mg) intra-articular per knee.
Where [6] appears, read: 0.2% (w/v) with 1% (w/v) methyl cellulose in water, 0.4 ml (0.8 mg) intra-articular per knee.

Consider `CC(=O)N[C@H](C(=O)N[C@@H](C)C(N)=O)C(C)C` [N-Ac-L-Val-L-Ala-NH2] (Ac-Val-Ala-NH2), for which, in assay [1] (setting [5]), the “duration of relief of pains” value turned out to be 24 h; the “period of diminished edema and inflammation of knees and lower legs” value is about 24 h; the “time after injection until pains in both knees disappeared” value fell in the range of 10 to 15 min. Besides, in assay [1] (setting [6]), the “duration of relief of pains” value amounted to 24 h; the “period of diminished edema and inflammation of knees and lower legs” value was about 24 h; the “time after injection until pains in both knees disappeared” value is 10 to 15 min. In addition, the “improvement of wound as judged by clinical evaluation” value in assay [2] (end of 5 days) is 95-100%. The “wound pain after topical application” value in assay [2] (left leg) is “stopped within a few minutes”. Besides, the “inhibition of the production of IL-6” value in assay [3] was “approximately 70%”.

Turning to `CC(=O)N[C@@H](Cc1ccc(O)cc1)C(=O)N[C@@H](Cc1ccc(O)cc1)C(N)=O` [N-Ac-L-Tyr-L-Tyr-NH2] (Ac-Tyr-Tyr-NH2), in the assay on muscle strength, the “maximal number of pushups in one hour” value is recorded as “about 200”. Also, the “appearance of varicose vein lesions” value in the assay with varicose veins is listed as “appeared less prominent”. In addition, the “vision in both eyes at yearly checkup” value in assay [4] (0.5% (w/v) in WEP442 pH 6.7 once daily on skin around eyes for 4 weeks) and in assay [4] (0.5% (w/v) in WEP442 pH 6.7 twice daily on skin around eyes for 6 weeks) was “did not worsen” in each case. The “time the treated underarm stayed dry” value with sweating of underarm was in the range of 6 to 8 h. In the assay on sweating of underarm (after two hours, vehicle underarm profuse sweating), the “sweating of treated left underarm” value is given as “no sweating”.
